In patent publication US6962933B1, “Method for inhibiting p38 MAP kinase or TNF-α production using a 1,3-thiazole” (Takeda Pharmaceutical Company Limited, priority 1999, dated 2005):

What was measured:
[1] = test system: TNF-α production; assay: Inhibiting activity of TNF-α production in LPS-stimulated THP-1 cells (ELISA); format: cell-based; details: Homo sapiens, LPS 5 μg/mL, 4 hours, TNF-α in supernatant by ELISA, read-out: IC50 (concentration necessary for inhibiting TNF-α production by 50%)
Method: Measurement of inhibiting activity of TNF-α production
After THP-1 cells which had been cultured on PRMI 1640 medium (manufactured by Life Technologies, Inc.) containing 1% inactivated bovine fetal serum (manufactured by Life Technologies, Inc., U.S.A.) and 10 mM HEPES (pH 7.5) seeded on a 96-well plate to 1×10^5 cells/well, 1 μL test compound dissolved in DMSO was added. After incubation at 37° C. for 1 hour in a CO2 incubator, LPS (Wako Pure Chemicals) was added to the final concentration 5 μg/mL. After cultured at 37° C. for 4 hours in a CO2 incubator, the supernatant was obtained by centrifugation. The concentration of TNF-α in the supernatant was measured by ELISA (R&D Systems, Quantikine Kit). The concentration (IC50 value) of the test compound necessary for inhibiting TNF-α production by 50% was calculated using PRIMS 2.01 (Graphpad Software).

IC50 [1] [nM]	melting point [°C]	Compound
46	255 to 258	Cc1cccc(-c2nc(N)sc2-c2ccncc2)c1 [Reference Example 23-60, [4-(3-methylphenyl)-5-(4-pyridyl)-1,3-thiazol-2-yl]amine]
	101 to 102	CSc1ccc(-c2nc(-c3cccc(C)c3)c(-c3ccncc3)s2)cc1 [Reference Example 44-7, methyl 4-[4-(3-methylphenyl)-5-(4-pyridyl)-1,3-thiazol-2-yl]phenylsulfide]
	188 to 189	Cc1cccc(-c2nc(-c3ccc([S+](C)[O-])cc3)sc2-c2ccncc2)c1 (stereo not drawn) [Reference Example 44-8, methyl 4-[4-(3-methylphenyl)-5-(4-pyridyl)-1,3-thiazol-2-yl]phenylsulfoxide]

Further lines, the compound ahead of its results:

Compound	IC50 [1] [nM]	melting point [°C]
CNc1nc(-c2ccc(OC)cc2)c(-c2ccncc2)s1 [Reference Example 13-16, N-methyl [4-(4-methoxyphenyl)-5-(4-pyridyl)-1,3-thiazol-2-yl]amine]	140	177 to 178
CNc1nc(-c2ccc(Cl)cc2)c(-c2ccncc2)s1 [Reference Example 13-70, N-methyl [4-(4-chlorophenyl)-5-(4-pyridyl)-1,3-thiazol-2-yl]amine]	180	224 to 225
Fc1ccc(-c2nc(-c3ccccc3)sc2-c2ccncc2)cc1 [Reference Example 44-1, 4-(4-fluorophenyl)-2-phenyl-5-(4-pyridyl)-1,3-thiazole]		135 to 137
